Results on ten molecules are retold here after ChEMBL document CHEMBL1201862, “PubChem BioAssay data set” (2004).

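Values below derive from 48-hour exposures of cells grown in 96-well plates, with endpoints linearly interpolated between the two concentrations bracketing the appropriate inhibition level. Abbreviation: GI50, concentration required for 50% inhibition of growth.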 The source made the active and inactive calls. Rule as the data show it: active = GI50 up to about 1.1 µM and inactive = higher.

Test systems include TK-10; SF-268; OVCAR-4; KM12; CAKI-1; EKVX; NCI-H522; NCI-H460; SK-MEL-28; SK-MEL-5; ACHN; RXF 393; HCT-15; U-251; UACC-62; RPMI-8226; HOP-92.
Test in all cases: NCI anticancer screen, dose series, 48 h

As to `CN(C)CCC(CCN(C)C)=NOC(=O)c1ccccc1`, the GI50 in the assay on TK-10, in the assay with SF-268, with OVCAR-4, in the assay on KM12, in the assay with CAKI-1 and in the assay on EKVX was > 100 µM (inactive) in each case. Besides, the GI50 in the assay with NCI-H522, in the assay on NCI-H460, with SK-MEL-28, in the assay with SK-MEL-5, in the assay with ACHN and in the assay on RXF 393 was > 100 µM (inactive) in each case. The GI50 with HCT-15 is above 100 µM; with U-251 it was > 100 µM (inactive); in the assay with UACC-62, > 100 µM (inactive); in the assay on RPMI-8226, > 100 µM (inactive).

`Cc1ccc(S(=O)(=O)c2ccc(NC(=O)SCCC(=O)O)cc2)cc1`: the GI50 in the assay on TK-10, in the assay on SF-268, with OVCAR-4, in the assay on KM12, in the assay with CAKI-1 and in the assay on EKVX was > 100 µM (inactive) throughout. The GI50 in the assay on NCI-H522 is > 100 µM (inactive); with NCI-H460 it was > 100 µM (inactive); in the assay with SK-MEL-28, > 100 µM (inactive); in the assay on ACHN it was > 100 µM (inactive); in the assay on RXF 393, > 100 µM (inactive); in the assay with HCT-15, above 100 µM. Further, the GI50 in the assay with U-251, in the assay with UACC-62 and in the assay with RPMI-8226 was > 100 µM (inactive) each time.

Regarding `Cc1cccc(C)c1NC(=O)C(=O)CC(=O)c1cccc([N+](=O)[O-])c1`, the GI50 in the assay with TK-10, in the assay with SF-268, in the assay with HOP-92, in the assay on OVCAR-4, in the assay with KM12 and in the assay on CAKI-1 was > 100 µM (inactive) in each case. Also, the GI50 in the assay with EKVX, with NCI-H522, with NCI-H460, in the assay with SK-MEL-28, in the assay with SK-MEL-5 and with ACHN was > 100 µM (inactive) each time. Also, the GI50 with HCT-15 was above 100 µM; with U-251, > 100 µM (inactive); in the assay on UACC-62, > 100 µM (inactive); with RPMI-8226, > 100 µM (inactive).

In the case of `COc1ccc(C2c3cc4c(cc3OC(O)(CO)C2C(=O)O)OCO4)c(OC)c1OC.COc1ccc(C2c3cc4c(cc3OC3(O)COC(=O)C23)OCO4)c(OC)c1OC` (configuration not stated), the GI50 in the assay with TK-10 is > 100 µM (inactive); with HOP-92, 29.2 µM (inactive); in the assay with OVCAR-4, > 100 µM (inactive); in the assay on CAKI-1, 65.8 µM (inactive); in the assay with EKVX, > 100 µM (inactive); in the assay on NCI-H460 it was > 100 µM (inactive). Moreover, the GI50 in the assay on SK-MEL-28 was > 100 µM (inactive); with SK-MEL-5, > 100 µM (inactive); in the assay with ACHN, > 100 µM (inactive); with RXF 393, 74 µM (inactive); in the assay with HCT-15, above 100 µM; in the assay with U-251 it was > 100 µM (inactive). For the same molecule, the GI50 in the assay with UACC-62 and in the assay on RPMI-8226 was > 100 µM (inactive) each time.

Regarding `Nc1nc2c(ncn2C2OC(CO)C(O)C2N)c(=O)[nH]1` (configuration not stated), the GI50 in the assay with TK-10, in the assay with SF-268, with HOP-92, with KM12, in the assay with CAKI-1 and in the assay on NCI-H522 was > 100 µM (inactive) each time. The GI50 in the assay on NCI-H460 is > 100 µM (inactive); in the assay on SK-MEL-28, > 100 µM (inactive); with ACHN, > 100 µM (inactive); with HCT-15 it was above 100 µM; in the assay on U-251 it was > 100 µM (inactive); in the assay with UACC-62, > 100 µM (inactive).

As to `CC(Oc1ccc2c(=O)cc(-c3ccccc3)oc2c1)C(=O)O` (configuration not stated), the GI50 with TK-10, with SF-268, in the assay on HOP-92, in the assay on OVCAR-4, in the assay with KM12 and with CAKI-1 was > 100 µM (inactive) in each case. For the same molecule, the GI50 in the assay on EKVX, in the assay with NCI-H522, in the assay with NCI-H460, with SK-MEL-28, in the assay with SK-MEL-5 and in the assay with ACHN was > 100 µM (inactive) throughout. Also, the GI50 in the assay with RXF 393, in the assay on U-251 and with UACC-62 was > 100 µM (inactive) throughout.

In the case of `Cn1ncc2c(c1=O)Nc1ccccc1S2(=O)=O`, the GI50 with TK-10, in the assay with SF-268, in the assay with HOP-92, with OVCAR-4, in the assay with KM12 and in the assay on CAKI-1 was > 100 µM (inactive) in each case. Besides, the GI50 in the assay on EKVX, with NCI-H522, in the assay with NCI-H460, in the assay on SK-MEL-28, with SK-MEL-5 and in the assay with ACHN was > 100 µM (inactive) each time. The GI50 is above 100 µM in the assay with HCT-15, 34.6 µM (inactive) in the assay with U-251, > 100 µM (inactive) in the assay on UACC-62 and 53.8 µM (inactive) in the assay on RPMI-8226.

Regarding `CC(=O)N1C/C(=C\c2ccc(N(C)C)cc2)C(=O)/C(=C/c2ccc(N(C)C)cc2)C1`, the GI50 with TK-10 was 75.7 µM (inactive); in the assay on SF-268, 66.2 µM (inactive); with HOP-92, > 100 µM (inactive); in the assay on OVCAR-4, > 100 µM (inactive); with KM12, 35.7 µM (inactive); with CAKI-1, 41.1 µM (inactive). Also, the GI50 is > 100 µM (inactive) in the assay with SK-MEL-28; 54.2 µM (inactive) in the assay with SK-MEL-5; 87.5 µM (inactive) in the assay with ACHN; 41.6 µM (inactive) with RXF 393; above 100 µM with HCT-15; 31.1 µM (inactive) with U-251. Also, the figures for the GI50 in the assay with UACC-62 and with RPMI-8226 were 30.1 µM (inactive) and > 100 µM (inactive), respectively.

On to `COc1ccc(NC(=O)COC(=O)c2cccc3c(=O)c4ccccc4[nH]c23)cc1`, for which the GI50 with TK-10 was 15.8 µM (inactive); in the assay with SF-268 it was 22.3 µM (inactive); with HOP-92, 25.1 µM (inactive); with OVCAR-4, 17.9 µM (inactive); in the assay with KM12, 16.9 µM (inactive); in the assay with CAKI-1, 19.5 µM (inactive). The GI50 was 18.4 µM (inactive) in the assay on EKVX; 17.9 µM (inactive) in the assay with NCI-H522; 30.8 µM (inactive) in the assay on SK-MEL-28; 15.3 µM (inactive) in the assay with SK-MEL-5; 21.1 µM (inactive) in the assay on ACHN; 15.3 µM (inactive) with RXF 393. The GI50 in the assay on U-251 was 19.5 µM (inactive); in the assay on UACC-62 it was 17.7 µM (inactive).

For the molecule `O=C(N/N=C(/c1nc2ccc(Cl)cc2[nH]c1=O)C(O)c1ccc(Cl)cc1Cl)c1ccncc1` (configuration not stated), the GI50 with TK-10, with SF-268, in the assay with HOP-92, in the assay with KM12, in the assay with CAKI-1 and in the assay with EKVX was > 100 µM (inactive) each time. In addition, the GI50 was > 100 µM (inactive) in the assay with NCI-H460; > 100 µM (inactive) in the assay on SK-MEL-28; > 100 µM (inactive) in the assay on SK-MEL-5; > 100 µM (inactive) in the assay with ACHN; > 100 µM (inactive) in the assay on RXF 393; above 100 µM with HCT-15. The GI50 in the assay on U-251, with UACC-62 and in the assay on RPMI-8226 was > 100 µM (inactive) in each case.
